Assay results from patent US5654179A, “Nucleic acid preparation methods” (HRI Research, Inc., priority 1994, dated 1997).
Structures can show the parent of a compound that is named as a salt. Where two headings read alike, the source gives them in different places.

Assays:
Taq polymerase [1] = conditions: cited from earlier work; for inhibitory concentration in PCR: final concentration
Taq polymerase [2] = assay type: biochemical; parameters: key to Effect of cofactors on serum albumin: BSA / Effect of cofactors on transferrin: Bovine Transferrin: The presence of product bands ("+") indicated that the cofactor was, in conjunction with transferrin or serum albumin, able to overcome inhibition
Method: (§1) Generally, PCR was carried out using 175-200 μM dNTPS (deoxyribonucleoside 5'-triphosphates) and 0.5 to 1.0 μM primers. Five units/100 μl of Taq polymerase were used. PCR reactions were overlaid with 30-100 μl light mineral oil. A typical PCR cycle for HIV amplification using a Perkin-Elmer Cetus DNA Thermal Cycler (Part No. N8010150) was: denaturation at 95° C. for 30 seconds; annealing at 55° C. for 30 seconds; and extension at 72° C. for 1 minute. PCR cycles were normally carried out in this manner for 35 cycles followed by 7 minutes at 72° C.
In some instances below, amplification of human histocompatibility (HLA) Class II genes was performed using primer pair GH26 (SEQ ID NO:2) and GH27 (SEQ ID NO:3) and human placental DNA to produce a 242-mer product (SEQ ID NO: 4). These primers and other primers are described in PCR Protocols: A Guide To Methods and Applications, Innis, M. A. et al. eds., pp. 261-271 (1990)).
Whole blood was prepared according to Mode III (see FIG. 1). Whole blood samples (100 μl) were lysed with protease K (0.5 mg/ml, 55° C. for 1 hour). The enzyme was inactivated by heating (95°-100°C., 10 minutes). Four sets of reactions were then set up involving the addition of interfering reagent to the protease lysate: 1) transferrin with 10 mM sodium bicarbonate; 2) transferrin with 20 mM sodium bicarbonate; 3) serum albumin with 10 mM sodium bicarbonate; and 4) serum albumin with no cofactor. These reaction were performed at room temperature for thirty minutes using a concentration range for transferrin and serum albumin (10, 25, 50, 75, 100, 150, 200 and 250 μg per 20 μl PCR rxn). PCR was then set up using the primer pair GH26/GH27 to produce a 242-mer product (see above). Two standard control reactions were run in separate tubes: i) a no nucleic acid target control; and 2) a positive control (human placental DNA). Four additional control lanes were run: 1) no inhibitor treatment (two lanes); 2) 10 mM sodium bicarbonate only (one lane); and 3) 50 μg transferrin only (one lane); and 4) transferrin with 10 mM sodium bicarbonate (two lanes). PCR was carried out for 35 cycles. The PCR products were thereafter electrophoresed (agarose) and visualized with ethidium bromide staining. The two above-named control reactions were electrophoresed in lanes 9 and 10 of FIG. 16A, respectively, as well as lanes 17 and 18 of FIG. 16B, respectively. In FIG. 16C, the positive control is in lane 1 and the negative control is in lane 2.
Whole blood was prepared according to Mode III (see FIG. 1). Whole blood samples (20 μl) were lysed with protease K (0.5 mg/ml, 55° C. for 1 hour). The enzyme was inactivated by heating (95°-100° C., 10 minutes). Reactions were then set up involving the addition of bovine transferrin or serum albumin with various cofactors, including bicarbonate ion, azide ion, thiocyanate ion, cyanate ion, oxalate ion, malonate ion, glycinate ion, and thioglycolate ion. These reaction were performed at room temperature for thirty minutes. PCR was then set up using the using primer pair GH26/GH27 to produce a 242-mer product (see above). PCR was carried out for 35 cycles. The PCR products were thereafter electrophoresed (agarose) and visualized with ethidium bromide staining.

Taq polymerase [3] = test: PCR inhibition, SK38/39 system, 115-mer product on ethidium bromide gel or autoradiograph; assay type: biochemical
Method: as §1
In other cases, amplification of HIV sequences was performed using primer pair SK-38 (SEQ ID NO:5) and SK-39 (SEQ ID NO:6) and 115-mer (SEQ ID NO:7) as target to produce a 115-mer product.
Where agarose gel electrophoresis was used, the PCR products were fractionated by electrophoresis through a 3% Nusieve/1% agarose gel in TBE buffer. Electrophoresis was typically carried out in a constant voltage of 8-10 V/cm. Following agarose gel electrophoresis, individual bands were, in most cases, visualized by ethidium bromide staining. This involved staining the agarose gel with 1 μg/ml ethidium bromide in TBE for 30 minutes followed by destaining the agarose gel with TBE for 30 minutes.
The chemical reaction was performed as follows. Two aliquots (30 mg/aliquot) of sodium borohydride (NaBH4) were added at ten minute intervals to 1 ml of 200 μM hematin (Sigma) in 1M Tris (pH 8.0) under argon in the dark. The pH was adjusted to 6.0 between additions. At the end of the reaction (20 minutes) the pH was adjusted to 1.0 and then neutralized to pH 7.0. Six aliquots (5 μl) of the product of the reaction corresponding to different amounts of reacted hematin (37.5 μM, 7.5 μM, 1.5 μM, 0.3 μM, 0.06 μM, 0.012 μM) were added to standard (20 μl) PCR reactions in different tubes using the SK38/39 system (see above). Three standard control reactions were run in separate tubes: i) a no nucleic acid target control; ii) a no primer control; and iii) a positive control (no hematin). In addition, unreacted hematin was added to four different tubes in different amounts (50 μM, 5 μM, 0.5 μM, and 0.05 μM). PCR was carried out for 30 cycles. The PCR products were thereafter electrophoresed (agarose) and visualized with ethidium bromide staining (FIG. 2A, lanes 1-13). The three above-named control reactions were electrophoresed in lanes 1, 2 and 3, respectively. […] The unreacted hematin tubes (lanes 4-7) show no product until hematin is present at a very low concentration (0.05 μM, lane 7), at which point product is evident. […] Indeed, product is evident where 1.5 μM reacted hematin or less was present. […] A score (i.e., % maximum intensity of a positive control) was given to each band. An OD unit of 1.0 corresponds to 100% of maximum intensity. After examination of a plot of the estimated OD units to the concentration of hematin (expressed in the log scale) in these PCR reactions, it is clear that approximately a thirty-fold concentration difference was achieved (reacted to unreacted).
The photochemical reaction was performed as follows. Stock biliverdin (Sigma, 5 mM) was diluted in solution (50 mM Tris pH 7.8) to a final concentration of 200 μM. Two aliquots (300 μl) were then made. One aliquot was left unreacted. The other aliquot was exposed to ultraviolet radiation from an HRI-100 for 16 hours using the industry standard, F8T5BL hot cathode dual bipin lamps. Thereafter, both the unirradiated and irradiated materials were added (5 μl) to standard (20 μl) PCR reactions in different tubes using the SK38/39 system (see above) and 10^9 copies of 115-mer target. Three standard control reactions were run in separate tubes: i) a no nucleic acid target control; ii) a positive control (no biliverdin); and iii) a no Taq control. PCR was carried out for thirty (30) cycles. The PCR products were thereafter electrophoresed (agarose) and visualized with ethidium bromide staining (FIG. 3A, lanes 1-5). […]

[4] = Spectroscopic analysis of photochemical treatment (300-700 nm scan); assay type: physicochemical
Method: In this case 0.5 ml of untreated biliverdin in solution (diluted in 50 mM Tris pH 7.8) to a final concentration corresponding to Apeak =0.7) was scanned using a Beckman Spectrophotometer Model DU-50 between 300 and 700 nm. Photochemically treated (1.5 hours and 16 hours of irradiation) biliverdin was similarly diluted and scanned. […] This corresponds to lane 5 in FIG. 3A where no PCR inhibition was observed.
In this case 0.5 ml of untreated bilirubin in solution (diluted in 50 mM Tris, pH 7.8 to a final concentration corresponding to Apeak =0.8) was scanned using a Beckman Spectrophotometer Model DU-50 between 300 and 700 nm. Photochemically treated (20 minutes, 60 minutes and 2.5 hours of irradiation) bilirubin was similarly diluted and scanned. […] With just 20 minutes of irradiation, this peak is reduced; with just 60 minutes of irradiation, this peak is weak; with 2.5 hours, it is eliminated. The 2.5 hour treatment corresponds to lane 8 in FIG. 4A where no PCR inhibition was observed.

[5] = test system: DNA ligase from mouse erythroleukemia (MEL) cells; conditions: incubation with hemoglobin; cited from earlier work
[6] = hematin or protoporphyrin only, 500 μM stock

Molecule: [Fe+2] [Fe++]
- inhibition of PCR / Taq polymerase (Taq polymerase [1]): inhibit PCR

Molecule: [Fe+3] [Fe^+++]
- inhibition of PCR / Taq polymerase (Taq polymerase [1]): inhibit PCR

Molecule: [N-]=[N+]=[N-] [Sodium Azide (NaN3), Sodium Azide]
- Effect of cofactors on serum albumin: BSA (Taq polymerase [2]; cofactor with BSA): +

Molecule: O=C(O)O [Sodium Bicarbonate (NaHCO3), Sodium Bicarbonate]
- Effect of cofactors on serum albumin: BSA (Taq polymerase [2]): +
- Effect of cofactors on transferrin: Bovine Transferrin (Taq polymerase [2]): +

Molecule: N#CO [Sodium Cyanate (NaOCN), Sodium Cyanate]
- Effect of cofactors on serum albumin: BSA (Taq polymerase [2]): +
- Effect of cofactors on transferrin: Bovine Transferrin (Taq polymerase [2]): +

Molecule: NCC(=O)O [Sodium Glycinate (NaO2 CH2 NH2), Sodium Glycinate]
- Effect of cofactors on serum albumin: BSA (Taq polymerase [2]): +
- Effect of cofactors on transferrin: Bovine Transferrin (Taq polymerase [2]): +

Molecule: O=C(O)CC(=O)O [Sodium Malonate (NaO2 CCH2 CO2 Na), Sodium Malonate]
- Effect of cofactors on serum albumin: BSA (Taq polymerase [2]): +

Molecule: O=C(O)C(=O)O [Sodium Oxalate (NaO2 CCO2 Na), Sodium Oxalate]
- Effect of cofactors on serum albumin: BSA (Taq polymerase [2]): +

Molecule: N#CS [Sodium Thiocyanate (NaSCN), Sodium Thiocyanate]
- Effect of cofactors on serum albumin: BSA (Taq polymerase [2]): +
- Effect of cofactors on transferrin: Bovine Transferrin (Taq polymerase [2]): +

Molecule: O=C(O)CS [Sodium Thioglycolate (NaO2 CCH2 SH), Sodium Thioglycolate]
- Effect of cofactors on serum albumin: BSA (Taq polymerase [2]): +
- Effect of cofactors on transferrin: Bovine Transferrin (Taq polymerase [2]): +

Molecule: C=CC1=C(C)/C(=C/c2[nH]c(Cc3[nH]c(/C=C4\NC(=O)C(C)=C4C=C)c(C)c3CCC(=O)O)c(CCC(=O)O)c2C)NC1=O [bilirubin]
- PCR product (Taq polymerase [3]; 400 μM bilirubin, 2.5 hrs irradiation): product is visible
- PCR product (Taq polymerase [3]; 800 μM bilirubin, 3.5 hrs irradiation): product is visible
- PCR product (Taq polymerase [3]; 2 mM bilirubin, 4 hrs irradiation): Product is not visible
- PCR inhibition (Taq polymerase [3]; unreacted bilirubin, 400 μM, 800 μM and 2 mM): completely inhibited
- absorbance peak at approximately 450 nm after irradiation ([4]; 20 minutes of irradiation): reduced
- absorbance peak at approximately 450 nm after irradiation ([4]; 60 minutes of irradiation): weak
- absorbance peak at approximately 450 nm after irradiation ([4]; 2.5 hours of irradiation): eliminated

Molecule: C=CC1=C(C)/C(=C/C2=NC(=C\c3[nH]c(/C=C4\NC(=O)C(C)=C4C=C)c(C)c3CCC(=O)O)/C(CCC(=O)O)=C2C)NC1=O [biliverdin]
- PCR product (Taq polymerase [3]; biliverdin photochemically treated 16 hrs): product is visible
- PCR inhibition (Taq polymerase [3]; biliverdin unirradiated, 5 μl of 200 μM in 20 μl PCR): completely inhibited
- absorbance peak at approximately 450 nm after irradiation ([4]; 1.5 hours of irradiation): very weak
- absorbance peak at approximately 450 nm after irradiation ([4]; 16 hours of irradiation): eliminated completely

Molecule: O=C(O)O [cofactor, sodium bicarbonate]
- PCR product (Taq polymerase [2]): No product is visible

Molecule: C=CC1=C(C)c2cc3[n-]c(cc4[n-]c(cc5nc(cc1n2)C(C)=C5C=C)c(C)c4CCC(=O)O)c(CCC(=O)O)c3C.O.[Fe+2] [hematin]
- PCR inhibition (Taq polymerase [3]; [6]): completely inhibited
- concentration difference (reacted to unreacted) in PCR inhibition (Taq polymerase [3]; sodium borohydride reduction, visual band intensity): thirty
- concentration at which PCR product is evident (Taq polymerase [3]; unreacted hematin, no product at 50, 5, 0.5 μM): 0.05 µM
- inhibition of PCR / Taq polymerase (Taq polymerase [1]): potent inhibitors of Taq polymerase
- inhibitory concentration in PCR (Taq polymerase [1]): ≥ 0.8 µM

Molecule: C=CC1=C(C)c2cc3[n-]c(cc4[n-]c(cc5nc(cc1n2)C(C)=C5C=C)c(C)c4CCC(=O)O)c(CCC(=O)O)c3C.[Fe+2] [heme]
- inhibitory concentration in PCR (Taq polymerase [1]): 0.8 µM

Molecule: C=CC1=C(C)c2cc3[nH]c(cc4nc(cc5[nH]c(cc1n2)c(C)c5CCC(=O)O)C(CCC(=O)O)=C4C)c(C)c3C=C [protoporphyrin]
- PCR inhibition (Taq polymerase [3]; [6]): completely inhibited
- inhibitory concentration in PCR (Taq polymerase [1]): 20 µM

Molecule: hemoglobin
- inhibition of DNA ligase from MEL cells [5]: not inhibitory

Molecule: serum albumin
- PCR product (Taq polymerase [2]; serum albumin 25 μg with cofactor (lane 9)): weak product band
- PCR product (Taq polymerase [2]; serum albumin 10 to 250 μg without cofactor): No product is visible
- PCR product (Taq polymerase [2]; serum albumin higher concentrations with cofactor (lanes 10-16)): strong product bands
